# Test results taken from ChEMBL document CHEMBL2150990, “Substrate-like water soluble lipase inhibitors from Filipendula kamtschatica” (Bioorg Med Chem Lett, 2012).
# What was measured:
# [1] = biological target: T1, Pancreatic triacylglycerol lipase (Sus scrofa, UniProt P00591); assay: Inhibition of porcine pancreatic lipase using micellar solution of triolein as substrate preincubated for 5 mins before substrate addition measured after 30 mins
# T1 sequence (P00591 whole entry): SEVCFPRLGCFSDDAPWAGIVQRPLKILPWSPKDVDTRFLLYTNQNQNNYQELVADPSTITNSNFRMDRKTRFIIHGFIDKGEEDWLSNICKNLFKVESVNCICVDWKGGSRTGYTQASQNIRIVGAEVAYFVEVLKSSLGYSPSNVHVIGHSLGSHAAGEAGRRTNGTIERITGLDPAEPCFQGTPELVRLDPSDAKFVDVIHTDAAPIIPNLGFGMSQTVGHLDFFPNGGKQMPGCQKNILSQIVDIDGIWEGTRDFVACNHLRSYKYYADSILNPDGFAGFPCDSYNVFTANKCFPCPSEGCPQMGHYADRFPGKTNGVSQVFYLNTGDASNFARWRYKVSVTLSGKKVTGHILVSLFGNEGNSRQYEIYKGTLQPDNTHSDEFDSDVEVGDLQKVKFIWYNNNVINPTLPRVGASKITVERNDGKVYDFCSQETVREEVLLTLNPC
# [2] = biological target: T2, Pancreatic triacylglycerol lipase (Sus scrofa) (UniProt P00591); conditions: 0.4 uM
# T2 sequence (whole entry): T1 sequence (P00591 whole entry)
# Description: Inhibition of porcine pancreatic lipase using micellar solution of triolein as substrate at 0.4 uM preincubated for 5 mins before substrate addition measured after 30 mins
# [3] = biological target: T2, Pancreatic triacylglycerol lipase (Sus scrofa); assay: Inhibition of porcine pancreatic lipase using micellar solution of triolein as substrate at 1 mM preincubated for 5 mins before substrate addition measured after 30 mins
SMILES,IC50 [1] [µM],inhibition [2] [%],inhibition [3] [%]
O=c1c(O[C@@H]2O[C@H](CO)[C@H](O)[C@H](O)[C@H]2O[C@@H]2OC[C@@H](O)[C@H](O)[C@H]2O)c(-c2ccc(O)c(O)c2)oc2cc(O)cc(O)c12,300,,
O=C(/C=C/c1ccc(O)c(O)c1)O[C@@H](C(=O)O)[C@@H](O)COC(=O)c1cc(O)c(O)c(O)c1,246,,
O=C(/C=C/c1ccc(O)c(O)c1)O[C@@H](COC(=O)c1cc(O)c(O)c(O)c1)[C@@H](O)C(=O)O,26,,
CCCCCCCCCCC[C@@H](C[C@@H]1OC(=O)[C@H]1CCCCCC)OC(=O)[C@H](CC(C)C)NC=O,,55,
O=C(O)/C=C/c1ccc(O)c(O)c1 [CAFFEIC ACID],> 1000,,13
O=C(O)c1cc(O)c(O)c(O)c1 [GALLIC ACID],> 1000,,4
O=C(O)[C@H](O)[C@@H](O)CO [L-THREONIC ACID],> 1000,,30
